Data from patent publication US9763454B2, “Composition comprising a biological control agent and a fungicide” (Bayer CropScience AG, priority 2012, dated 2017).

Tests used:
[1] = test system: cotton (variety Vicky) seedlings; assay: Hypocotyl growth enhancement (cotton)/Drench; assay type: in vivo; details: 7 days after sowing
Protocol: (§1) The test is performed under greenhouse conditions.
Five cotton (variety Vicky) seeds were sown in a 6*6 cm pot containing 1:1 mix of steamed field soil and sand. Compounds and compound combinations were suspended and diluted with water to the desired concentrations. Just after sowing, 30 ml of compound or compound combination preparation were drenched on each pot. The pots (three replications per treatment) were placed in randomized arrangement in the greenhouse and kept at 20° C. for 7 days.
Length of hypocotyls was measured at 7 days after sowing.

[2] = test system: Rhizoctonia solani; assay: Rhizoctonia test (cotton)/Drench; assay type: in vivo; details: greenhouse, 30 ml drench per pot, 7 days at 20° C., BioAct 4 × 10^11 cfu/seed, F70 1.2 mg ai/seed
Protocol: as §1
Perlite was incubated with mycelia of Rhizoctonia solani. Infected perlite was scattered in a 1:1 mix of steamed field soil and sand and was incubated in a dark box in greenhouse for 6 days. After soil incubation, cotton seeds were sown in 6*6 cm pots containing this soil mixture.
Compounds and compound combinations were suspended and diluted with water to the desired concentrations. 30 ml of compound or compound combination preparation were drenched on each pot. Pots were incubated in the greenhouse for 7 days at 20° C.
Assessment consisted of counting of emerged seedlings. 0% means an efficacy which corresponds to that of the untreated control, while an efficacy of 100% means that all seedlings have emerged.

Structure (SMILES): O=C(NCCc1ncc(C(F)(F)F)cc1Cl)c1ccccc1C(F)(F)F [F70 fluopyram, fluopyram]
- Seedling/hypocotyl length compared in words ([1]; drench): significantly higher than untreated
- Hypocotyl (length, average of 15 seedlings) ([1]; greenhouse, 30 ml drench per pot, 20° C., BioAct 4 × 10^11 cfu/plant, F70 1.2 mg ai/plant, untreated 5.3): 5.9 cm
- Efficacy in % found (activity found; emerged seedlings) [2]: 0%
